The subject of test [1] is HT-29. Nature of the test: Cytotoxicity against human HT-29 cells after 48 hrs by Alamar Blue assay. The settings on record: HT-29, 48 h. It counts as functional, cell-based. In general terms: The colour change of resazurin is a common sign of viable cells or microbes.
Test [2] concerns LAMA-84. Put plainly: Cytotoxicity against human LAMA-84 cells after 48 hrs by Alamar Blue assay. It counts as functional, cell-based. The settings on record: LAMA-84, 48 h.
Test [3] has as its system BJ. Put plainly: Cytotoxicity against human BJ cells after 48 hrs by Alamar Blue assay. It is filed as cell-based.

SMILES strings stand for the structures.

As usually defined, the IC50 is the point on the concentration scale where inhibition reaches its midpoint. A low value points to inhibition by little substance. In the case of `CC(C)CCC[C@@H](C)[C@H]1CC[C@H]2[C@@H]3CC[C@@]45O[C@@H]4[C@@H](O)CC[C@]5(C)[C@H]3CC[C@]12C`, the midpoint of inhibition in test [1], the IC50, lay at 61.9 µM.
Turning to `CC(C)CCC[C@@H](C)[C@H]1CC[C@H]2[C@@H]3CC[C@]45O[C@H]4[C@@H](O)CC[C@]5(C)[C@H]3CC[C@]12C`, the IC50 worked out at 22.6 µM in test [1], 11.2 µM in test [2] and 31.4 µM in test [3].
With `CC(C)CCC[C@@H](C)[C@H]1CC[C@H]2[C@@H]3[C@@H]4O[C@@]45C[C@@H](O)CC[C@]5(C)[C@H]3CC[C@]12C`, half-maximal inhibition in test [1] (IC50) required 40.9 µM.
On to `CC(C)CCC[C@@H](C)[C@H]1CC[C@H]2[C@@H]3C[C@@H]4O[C@@]45[C@@H](O)[C@@H](O)CC[C@]5(C)[C@H]3CC[C@]12C`, for which, in test [1], half-maximal inhibition (IC50) required 38.2 µM.
With `CC(C)CCC[C@@H](C)[C@H]1CC[C@H]2[C@@H]3C[C@H]4O[C@]45[C@@H](O)[C@@H](O)CC[C@]5(C)[C@H]3CC[C@]12C`, the IC50 was 17.7 µM in test [1], 8 µM in test [2] and 20.4 µM in test [3].
In test [1], `CC(C)CCC[C@@H](C)[C@H]1CC[C@H]2[C@@H]3[C@H](O)C=C4C[C@@H](O)CC[C@]4(C)[C@H]3CC[C@]12C` came in with an IC50 of 15.5 µM.
Same read-out and setting: in the case of `CC(C)CCC[C@@H](C)[C@H]1CC[C@H]2[C@@H]3[C@H](O)[C@@H]4O[C@@]45C[C@@H](O)CC[C@]5(C)[C@H]3CC[C@]12C` it was 33.8 µM; in that of `CC(C)CCC[C@@H](C)[C@H]1CC[C@H]2[C@@H]3CC=C4[C@@H](O)[C@@H](O)CC[C@]4(C)[C@H]3CC[C@]12C`, more than 50 µM; in that of `CC(C)CCC[C@@H](C)[C@H]1CC[C@H]2[C@@H]3C[C@@H]4O[C@@]45C[C@@H](O)CC[C@]5(C)[C@H]3CC[C@]12C`, more than 50 µM.
Take `CC(C)CCC[C@@H](C)[C@H]1CC[C@H]2[C@@H]3C[C@H]4O[C@]45C[C@@H](O)CC[C@]5(C)[C@H]3CC[C@]12C`: the concentration for half-maximal inhibition (IC50) in test [1] was found to be 37.6 µM.
Regarding `CC(C)CCC[C@@H](C)[C@H]1CC[C@H]2[C@@H]3[C@@H](O)[C@H]4O[C@]45C[C@@H](O)CC[C@]5(C)[C@H]3CC[C@]12C`, the values for the IC50 in test [1], in test [2] and in test [3] were 8.3 µM, 7 µM and 19.5 µM, respectively.
As for `CC(C)CCC[C@@H](C)[C@H]1CC[C@H]2[C@@H]3[C@@H](O)C=C4C[C@@H](O)CC[C@]4(C)[C@H]3CC[C@]12C`, the IC50 came to 6.4 µM in test [1], 4.8 µM in test [2] and 20.1 µM in test [3].
As to `CC(C)CCC[C@@H](C)[C@H]1CC[C@H]2[C@@H]3[C@@H](O)[C@@H]4O[C@@]45C[C@@H](O)CC[C@]5(C)[C@H]3CC[C@]12C`, the values for the IC50 in test [1], in test [2] and in test [3] were 13.3 µM, 4.1 µM and 13.4 µM, respectively.
The compound `CC(C)CCC[C@@H](C)[C@H]1CC[C@H]2[C@@H]3CCC4=C[C@@H](O)CC[C@]4(C)[C@H]3CC[C@]12C` displayed a concentration for half-maximal inhibition (IC50) in test [1] of more than 50 µM.
The compound `CC(=O)O[C@H]1CC[C@]2(C)[C@H]3CC[C@]4(C)[C@@H]([C@H](C)CCCC(C)C)CC[C@H]4[C@@H]3C[C@H]3O[C@]32[C@H]1O` displayed an IC50 in test [1] of 28.2 µM.
Take `CC(=O)O[C@H]1[C@@H](O)CC[C@]2(C)[C@H]3CC[C@]4(C)[C@@H]([C@H](C)CCCC(C)C)CC[C@H]4[C@@H]3C[C@H]3O[C@@]312`: the IC50 in test [1] was 15.9 µM; in test [2] it was 8.1 µM.
As to `CC(=O)O[C@H]1CC[C@@]2(C)C(=C[C@H](O)[C@H]3[C@@H]4CC[C@H]([C@H](C)CCCC(C)C)[C@@]4(C)CC[C@@H]32)C1`, the midpoint of inhibition in test [1], the IC50, lay at 29.4 µM.
In turn, `CC(C)CCC[C@@H](C)[C@H]1CC[C@H]2[C@@H]3CC=C4C[C@@H](O)CC[C@]4(C)[C@H]3CC[C@]12C` [CHOLESTEROL] displayed an IC50 in test [1] of more than 50 µM.
Consider `COc1cccc2c1C(=O)c1c(O)c3c(c(O)c1C2=O)C[C@@](O)(C(=O)CO)C[C@@H]3O[C@H]1C[C@H](N)[C@H](O)[C@H](C)O1` [DOXORUBICIN], for which the IC50 in test [1] worked out at 1.15 µM; in test [2] it was 0.76 µM; in test [3], 2.7 µM.

The values above are taken from ChEMBL document CHEMBL1136993, “Efficient chemoenzymatic synthesis, cytotoxic evaluation, and SAR of epoxysterols” (J Med Chem, 2009).
